Patent US6245801A, “Branched alkyl pyrrolidine-3-carboxylic acids” (Warner-Lambert Company, priority 2000, dated 2001)

Key:
Vogel = experiment: Vogel; format: in vivo; details: relative to C1-1008
NA Release = experiment: NA Release, % inhibition; details: @ 100 μM
DBA/2 mice = experiment: DBA2 mouse model of anticonvulsant efficacy (sound-induced seizures); format: in vivo, mouse (male DBA/2); details: time not printed
Experimental: DBA2 Mouse Model of Anticonvulsant Efficacy
All procedures were carried out in compliance with the NIH Guide for the Care and Use of Laboratory Animals under a protocol approved by the Parke-Davis Animal Use Committee. Male DBA/2 mice, 3 to 4 weeks old were obtained from Jackson Laboratories Bar Harbour, Me. Immediately before anticonvulsant testing, mice were placed upon a wire mesh, 4 inches square, suspended from a steel rod. The square was slowly inverted through 180° and mice observed for 30 seconds. Any mouse falling from the wire mesh was scored as ataxic (Coughenour L. L., McLean J. R., Parker R. B., "A new device for the rapid measurement of impaired motor function in mice," Pharm. Biochem. Behav., 1977;6(3):351-3). Mice were placed into an enclosed acrylic plastic chamber (21 cm height, approximately 30 cm diameter) with a high-frequency speaker (4 cm diameter) in the center of the top lid. An audio signal generator (Protek model B-810) was used to produce a continuous sinusoidal tone that was swept linearly in frequency between 8 kHz and 16 kHz once each 10 msec. The average sound pressure level (SPL) during stimulation was approximately 100 dB at the floor of the chamber. Mice were placed within the chamber and allowed to acclimatize for one minute. DBA/2 mice in the vehicle-treated group responded to the sound stimulus (applied until tonic extension occurred, or for a maximum of 60 sec) with a characteristic seizure sequence consisting of wild running followed by clonic seizures, and later by tonic extension, and finally by respiratory arrest and death in 80% or more of the mice. In vehicle-treated mice, the entire sequence of seizures to respiratory arrest lasts approximately 15 to 20 seconds. The incidence of all the seizure phases in the drug-treated and vehicle-treated mice was recorded, and the occurrence of tonic seizures were used for calculating anticonvulsant ED50 values by probit analysis (Litchfield J. T., Wilcoxon F. "A simplified method for evaluating dose-effect experiments," J. Pharmacol., 1949;96:99-113). Mice were used only once for testing at each dose point. Groups of DBA/2 mice (n=5-10 per dose) were tested for sound-induced seizure responses 2 hours (previously determined time of peak effect) after given drug orally. All drugs in the present study were dissolved in distilled water and given by oral gavage in a volume of 10 mL/kg of body weight. Compounds that are insoluble will be suspended in 1% carboxymethocellulose. Doses are expressed as weight of the active drug moiety.

[1] = target: T1, α2δ subunit of a calcium channel (Sus scrofa, UniProt A0A287BIN3); experiment: [3H]gabapentin (GAP) radioligand binding assay, α2δ subunit; set-up: species or system porcine (brain tissue)
T1 construct: α2δ subunit derived from porcine brain tissue; from tissue; host or cells: porcine brain tissue

[2] = test system: carrageenin-induced hyperalgesia; experiment: CITH / carrageenin-induced hyperalgesia; format: in vivo, rat (male Sprague-Dawley); details: for CITH % MPE 1 h / CITH % MPE 2 h: Table I; for percent of maximum possible effect (MPE): 30 mg/kg orally
Experimental: Carrageenin-Induced Hyperalgesia
Nociceptive pressure thresholds were measured in the rat paw pressure test using an analgesymeter (Randall-Selitto method: Randall L. O. and Selitto J. J., "A method for measurement of analgesic activity on inflamed tissue," Arch. Int. Pharmacodyn., 1957;4:409-419). Male Sprague-Dawley rats (70-90 g) were trained on this apparatus before the test day. Pressure was gradually applied to the hind paw of each rat and nociceptive thresholds were determined as the pressure (g) required to elicit paw withdrawal. A cutoff point of 250 g was used to prevent any tissue damage to the paw. On the test day, two to three baseline measurements were taken before animals were administered 100 μL of 2% carrageenin by intraplantar injection into the right hind paw. […] Animals were dosed with either gabapentin ([…].), morphine (3 mg/kg, s.c.) or saline at 3.5 hours after carageenin and nociceptive thresholds were examined at 4, 4.5, and 5 hours postcarrageenin.
(R)-2-Aza-spiro[4.5]decane-4-carboxylic acid hydrochloride was tested in the above carrageenan-induced hyperalgesia model. The compound was dosed orally at 30 mg/kg, and 1 hour postdose gave a percent of maximum possible effect (MPE) of 53%. At 2 hours postdose, it gave only 4.6% of MPE.

Sys L = experiment: Sys L; details: Table I

T1 sequence (A0A287BIN3 entry or part of it): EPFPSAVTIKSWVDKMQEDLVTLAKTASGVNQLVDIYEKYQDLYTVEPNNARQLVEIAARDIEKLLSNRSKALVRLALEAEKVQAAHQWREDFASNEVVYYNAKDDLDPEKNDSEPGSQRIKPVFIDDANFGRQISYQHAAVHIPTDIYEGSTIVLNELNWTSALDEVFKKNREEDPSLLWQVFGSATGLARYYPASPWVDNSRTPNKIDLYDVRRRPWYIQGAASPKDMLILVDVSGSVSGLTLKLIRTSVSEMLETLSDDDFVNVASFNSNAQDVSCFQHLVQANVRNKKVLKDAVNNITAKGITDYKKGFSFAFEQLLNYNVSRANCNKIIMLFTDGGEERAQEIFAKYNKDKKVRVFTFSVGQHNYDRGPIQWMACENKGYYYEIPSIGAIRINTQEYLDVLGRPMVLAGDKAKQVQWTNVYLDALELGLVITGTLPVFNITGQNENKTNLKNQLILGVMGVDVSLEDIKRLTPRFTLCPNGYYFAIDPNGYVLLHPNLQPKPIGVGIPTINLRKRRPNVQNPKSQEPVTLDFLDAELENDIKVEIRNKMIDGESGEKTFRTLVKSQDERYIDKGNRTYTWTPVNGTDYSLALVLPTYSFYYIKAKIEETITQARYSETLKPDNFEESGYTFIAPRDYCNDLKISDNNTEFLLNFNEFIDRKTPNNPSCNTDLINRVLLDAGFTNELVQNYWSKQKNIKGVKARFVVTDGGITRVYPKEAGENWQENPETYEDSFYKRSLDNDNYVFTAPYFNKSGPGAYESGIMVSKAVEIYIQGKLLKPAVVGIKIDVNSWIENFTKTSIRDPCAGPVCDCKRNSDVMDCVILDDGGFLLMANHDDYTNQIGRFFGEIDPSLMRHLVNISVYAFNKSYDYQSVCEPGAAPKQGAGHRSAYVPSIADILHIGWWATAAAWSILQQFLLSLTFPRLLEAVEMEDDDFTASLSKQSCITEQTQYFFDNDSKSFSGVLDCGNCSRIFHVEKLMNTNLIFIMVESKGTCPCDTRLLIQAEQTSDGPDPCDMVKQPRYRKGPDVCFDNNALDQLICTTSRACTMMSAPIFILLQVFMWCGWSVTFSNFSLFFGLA

CC(C)C[C@H]1CNC[C@@H]1C(=O)O
Vogel % of C1-1008 (Vogel): 0.63 % of C1-1008
NA Release % Inhibition (NA Release): 16%
DBA 2 % Protect (time) (DBA/2 mice; first value of the column): 20%
DBA 2 % Protect (time) (DBA/2 mice; second value of the column): 40%

CC(C)C[C@@H]1CNC[C@H]1C(=O)O
Vogel % of C1-1008 (Vogel): -0.63 % of C1-1008
NA Release % Inhibition (NA Release): 8%

CC1(C)CNCC1C(=O)O (racemic)
IC50 [1]: 1.19 µM

C[C@H]1CNC[C@@H]1C(=O)O (relative stereo)
IC50 [1]: 3.1 µM

CC(C)[C@H]1CNC[C@@H]1C(=O)O (relative stereo)
IC50 [1]: 0.543 µM

CCC[C@H]1CNC[C@@H]1C(=O)O (relative stereo)
IC50 [1]: 0.03 µM

CCCC[C@H]1CNC[C@@H]1C(=O)O (relative stereo)
IC50 [1]: 0.064 µM

CC(C)C[C@H]1CNC[C@@H]1C(=O)O (stereo in doubt)
CITH % MPE 1 h [2]: 3 % MPE
CITH % MPE 2 h [2]: -15 % MPE
DBA 2 % Protect (time) (DBA/2 mice; first value of the column): 0%
DBA 2 % Protect (time) (DBA/2 mice; second value of the column): 0%

CC(C)C[C@@H]1CNC[C@@H]1C(=O)O (stereo in doubt)
CITH % MPE 1 h [2]: 23 % MPE
CITH % MPE 2 h [2]: 3.3 % MPE
IC50 [1]: 0.7 µM
DBA 2 % Protect (time) (DBA/2 mice; first value of the column): 0%
DBA 2 % Protect (time) (DBA/2 mice; second value of the column): 0%

CC(C)C[C@H]1CNC[C@H]1C(=O)O (stereo in doubt) [Example 1, (cis)-4-Isobutyl-pyrrolidine-3-carboxylic acid]
IC50 [1]: 0.135 µM

Cl.O=C(O)[C@H]1CNCC12CCCCC2 [(R)-2-Aza-spiro[4.5]decane-4-carboxylic acid hydrochloride]
percent of maximum possible effect (MPE) ([2]; 1 hour postdose): 53%
percent of maximum possible effect (MPE) ([2]; 2 hours postdose): 4.6%
CITH % MPE 1 h [2]: 53 % MPE
CITH % MPE 2 h [2]: 4.6 % MPE
IC50 [1]: 0.12 µM
IC50 (Sys L): > 10000 µM
DBA 2 % Protect (time) (DBA/2 mice; first value of the column): 20%
DBA 2 % Protect (time) (DBA/2 mice; second value of the column): 20%

NCC1(CC(=O)O)CCCCC1 [reference compound]
CITH % MPE 1 h [2]: 48.9 % MPE
CITH % MPE 2 h [2]: 19.9 % MPE
Vogel % of C1-1008 (Vogel): 63.7 % of C1-1008
IC50 (Sys L): 25 µM
DBA 2 % Protect (time) (DBA/2 mice; first value of the column): 100%

CC(C)C[C@H](CN)CC(=O)O [reference compound]
CITH % MPE 1 h [2]: 52.5 % MPE
CITH % MPE 2 h [2]: 50.1 % MPE
Vogel % of C1-1008 (Vogel): 100 % of C1-1008
IC50 [1]: 0.087 µM
IC50 (Sys L): 193 µM
DBA 2 % Protect (time) (DBA/2 mice; first value of the column): 100%
DBA 2 % Protect (time) (DBA/2 mice; second value of the column): 100%
